This is an account of results in publication PMC12292504, “Improving Cofactor Promiscuity of HMG-CoA Reductase from Ruegeria pomeroyi Through Rational Design” (Biomolecules, 2025).

The assay concerns the target T1, rpHMGR (Ruegeria pomeroyi, UniProt Q5LL64, D154K).
T1 construct: gene mvaA; N-terminal 6xHis-tag (pET28a-rpHMGR(N)), codon-optimised synthetic gene, E. coli BL21(DE3), Ni-NTA purified; homodimer only by model
Briefly: NADPH consumption followed at […] nm (reductive deacylation of HMG-CoA). Format: biochemical. To be noted: 0.5 mM NADPH, 0.5 mM (R,S)-HMG-CoA, 50 mM Tris-HCl, 50 mM NaCl, 5 mM DTT, pH 7.5, 30 °C.

T1 sequence (Q5LL64 entry or part of it D154K): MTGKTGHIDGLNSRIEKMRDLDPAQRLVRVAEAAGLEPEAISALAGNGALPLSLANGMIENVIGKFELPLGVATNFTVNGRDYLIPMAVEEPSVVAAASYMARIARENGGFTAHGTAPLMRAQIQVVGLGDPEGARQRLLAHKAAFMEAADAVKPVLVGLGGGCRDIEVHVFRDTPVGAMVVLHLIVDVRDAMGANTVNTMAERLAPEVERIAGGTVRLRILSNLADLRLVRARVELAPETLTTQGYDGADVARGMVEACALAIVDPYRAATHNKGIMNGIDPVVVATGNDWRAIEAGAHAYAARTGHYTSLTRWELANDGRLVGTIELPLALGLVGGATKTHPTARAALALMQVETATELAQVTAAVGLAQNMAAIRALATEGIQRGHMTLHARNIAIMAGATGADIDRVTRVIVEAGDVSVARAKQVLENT

Turning to `NC(=O)C1=CN([C@@H]2O[C@H](COP(=O)(O)OP(=O)(O)OC[C@H]3O[C@@H](n4cnc5c(N)ncnc54)[C@H](OP(=O)(O)O)[C@@H]3O)[C@@H](O)[C@H]2O)C=CC1` [NADPH], the specific activity result is recorded as “D154K mutant exhibited a significantly improved ability to utilize NADPH”.
